Test results as given in patent US12637440B2, “Amide derivative useful as diacylglycerol acyltransferase 2 inhibitor, and use thereof” (LG CHEM, LTD., priority 2019, dated 2026).

Target: T1, Recombinant human DGAT2 protein (Homo sapiens, UniProt Q96PD7)
T1 construct: FLAG (DYKDDDDK); (N); made in house; host or cells: Sf-21 insect cells (BacPAK baculovirus system); used as a membrane preparation
T1 sequence (Q96PD7 1-388): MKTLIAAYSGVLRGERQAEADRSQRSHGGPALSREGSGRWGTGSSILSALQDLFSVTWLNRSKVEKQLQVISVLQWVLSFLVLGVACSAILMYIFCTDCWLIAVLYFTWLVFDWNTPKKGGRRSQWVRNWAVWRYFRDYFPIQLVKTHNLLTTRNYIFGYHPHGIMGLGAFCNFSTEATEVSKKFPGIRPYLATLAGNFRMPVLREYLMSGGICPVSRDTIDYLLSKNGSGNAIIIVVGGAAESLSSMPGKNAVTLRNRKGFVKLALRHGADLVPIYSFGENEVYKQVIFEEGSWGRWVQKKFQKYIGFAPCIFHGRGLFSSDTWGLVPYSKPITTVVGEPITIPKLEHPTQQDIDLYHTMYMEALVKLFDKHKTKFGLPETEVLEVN
Experiment: Measurement of inhibitory effect against DGAT2 enzyme activity (SPA, Phospholipid FlashPlate, [14C]-TG production)
Format: biochemical
Details: concentration inhibiting [14C]-labeled triacyl glycerol (TG) production by 50%; 2 μg DGAT2-membrane protein from Sf-21 cells, 37° C.
Description: Experimental Example: Measurement of Inhibitory Effect Against DGAT2 Enzyme Activity
In order to prepare the pBacPAK9-DGAT2, which is DGAT2 expression vector, the human DGAT2 gene amplified by polymerase chain reaction (PCR) was cloned into the EcoR1 and Xho1 sites of the pBacPAK9 (clonctech) vector. The nucleotide sequence of the primers used in PCR was the forward primer 5′ […] and the reverse primer 5′ […]. The composition of the reaction solution was to contain 50 ng of cDNA clone (OriGene), 200 μM of dATP, dCTP, dTTP, dGTP, 200 nM of each primer, 1 unit of Tag DNA Polymerase (Toyobo), 1×PCR buffer, and the final volume was adjusted to 20 μl. The reaction conditions were denatured at 95° C. for 5 minutes, followed by 30 times of 94° C. for 20 seconds, 60° C. for 20 seconds, and 72° C. for 90 seconds, followed by further reaction at 72° C. for 7 minutes.
Recombinant human DGAT2 protein was expressed in Sf-21 cells, which are insect cells, by using the BacPack baculovirus expression system (Clontech). The brief manufacturing process is as follows. First, the pBacPAK9-DGAT2 expression vector was transfected with BacPAK6 virus DNA (Bsu36I digest) into sf21 cells using Bacfectin to prepare a recombinant DGAT2 expressing baculovirus. The thus prepared baculovirus was infected with Sf-21 cells at 10 MOI (multiplicity of infection), and after 72 hours, infected insect cells were collected and membrane proteins were isolated. For membrane protein separation, the cell pellet was dissolved in a sucrose solution containing 250 mM sucrose, 10 mM Tris (pH 7.4), and 1 mM ethylenediamine-tetraacetic acid (EDTA), and then homogenized by using a dounce homogenizer, and the supernatant was taken by centrifuging at 600×g for 15 minutes, and centrifuged at 100,000×g for 1 hour to discard the supernatant, and the remaining pellet was resuspended in 20 mM HEPES buffer (pH 7.4). The prepared DGAT2 overexpressing membrane protein was dispensed in 100 μl and stored at −80° C. until use. Protein concentration was quantified by using the BCA Protein Assay Kit (Thermo Scientific).
In vitro DGAT2 analysis was performed using a Phospholipid Flash Plate (PerkinElmer) based on the principle of SPA (Scintillation Proximity Assay). First, DGAT2 inhibition compounds serially diluted 5 times from 3 nM to 10 μM (final concentration, 1% DMSO) were mixed in a buffer solution containing 2 μg DGAT2-membrane protein and 20 mM HEPES, 20 mM MgCl2, 1 mg/mL BSA, 50 μM 1,2 sn-oleoyl glycerol (Sigma), put in a 96-well flash plate (FlashPlate) and reacted at 37° C. for 20 minutes, and then 1 μM [14C] ole oil CoA (PerkinElmer, NEC651050UC) was added to be a final volume of 100 μL and further reacted at 37° C. for 15 minutes. After the enzymatic reaction was completed, 100 μL of isopropanol was added, the plate was sealed with a film, and the plate was shaken slowly in a plate shaker. The next day, the amplified scintillation signal (cpm) in Topcounter (Packard) was measured to measure the degree of production of [14C]-labeled triacyl glycerol (TG) as a reaction product. The measured value when the compound was not treated was used as a positive control, and the measured value of the compound treated group was calculated as a relative % to measure the inhibition effect of the compound on TG production.

`CCOc1ccccc1O[C@@H]1CCCN(c2cncc(NC(=O)Nc3cc(C(F)(F)F)cc(C(F)(F)F)c3)n2)C1` [Example 1, (R)-1-(3,5-bis(trifluoromethyl)phenyl)-3-(6-(3-(2-ethoxyphenoxy)piperidin-1-yl)pyrazin-2-yl)urea] and `CCOc1ccccc1O[C@@H]1CCCN(c2cncc(NC(=O)Cc3cc(C(F)(F)F)cc(C(F)(F)F)c3)n2)C1` [Example 27, (R)-2-(3,5-bis(trifluoromethyl)phenyl)-N-(6-(3-(2-ethoxyphenoxy)piperidin-1-yl)pyrazin-2-yl)acetamide] are within 1.5-fold of each other in IC50: 45 nM for the first, 49 nM for the second.

Compared with `CCOc1ccccc1O[C@@H]1CCCN(c2cncc(NC(=O)N[C@@H](Cc3ccccc3)C(=O)O)n2)C1` [Example 2, ((6-((R)-3-(2-ethoxyphenoxy)piperidin-1-yl)pyrazin-2-yl)carbamoyl)-L-phenylalanine], `CCOc1ccccc1O[C@@H]1CCCN(c2cncc(NC(=O)CCc3ccccc3)n2)C1` [Example 29, (R)—N-(6-(3-(2-ethoxyphenoxy)piperidin-1-yl)pyrazin-2-yl)-3-phenylpropanamide] is 890-fold lower in IC50: 16000 nM for the first, 18 nM for the second.

`CCOc1ccccc1O[C@@H]1CCCN(c2cncc(NC(=O)N3CCOCC3)n2)C1` [Example 3, (R)—N-(6-(3-(2-ethoxyphenoxy)piperidin-1-yl)pyrazin-2-yl)morpholine-4-carboxamide] and `CCOc1ccccc1O[C@@H]1CCCN(c2cncc(NC(=O)N3CCCC3)n2)C1` [Example 4, (R)—N-(6-(3-(2-ethoxyphenoxy)piperidin-1-yl)pyrazin-2-yl)pyrrolidine-1-carboxamide] are within 1.5-fold of each other in IC50: 2300 nM for the first, 1600 nM for the second.

First: CCOc1ccccc1O[C@@H]1CCCN(c2cncc(NC(=O)N3CCC(C(=O)O)C3)n2)C1 (stereo partly drawn) [Example 5, 1-((6-((R)-3-(2-ethoxyphenoxy)piperidin-1-yl)pyrazin-2-yl)carbamoyl)pyrrolidine-3-carboxylic acid]
Second: CCOc1ccccc1O[C@@H]1CCCN(c2cncc(NC(=O)C3CCN(C(C)=O)CC3)n2)C1 [Example 16]
The IC50 of the first is 130-fold higher: 51000 nM for the first, 390 nM for the second.

`CCOc1ccccc1O[C@@H]1CCCN(c2cncc(NC(=O)c3ccccc3)n2)C1` [Example 6, (R)—N-(6-(3-(2-ethoxyphenoxy)piperidin-1-yl)pyrazin-2-yl)benzamide] and `CCOc1ccccc1O[C@@H]1CCCN(c2cncc(NC(=O)c3ccc(Cl)cc3)n2)C1` [Example 7, (R)-4-chloro-N-(6-(3-(2-ethoxyphenoxy)piperidin-1-yl)pyrazin-2-yl)benzamide] are within 1.5-fold of each other in IC50: 53 nM for the first, 45 nM for the second.

Going from `CCOc1ccccc1O[C@@H]1CCCN(c2cncc(NC(=O)c3cccc(OC)c3)n2)C1` [Example 8, (R)—N-(6-(3-(2-ethoxyphenoxy)piperidin-1-yl)pyrazin-2-yl)-3-methoxybenzamide] to `CCOc1ccccc1O[C@@H]1CCCN(c2cncc(NC(=O)c3ccc(OC)cc3)n2)C1` [Example 9, (R)—N-(6-(3-(2-ethoxyphenoxy)piperidin-1-yl)pyrazin-2-yl)-4-methoxybenzamide], the IC50 falls from 230 nM to 90 nM (2.6-fold).

Going from `CCOc1ccccc1O[C@@H]1CCCN(c2cncc(NC(=O)c3ccc([N+](=O)[O-])cc3)n2)C1` [Example 10, (R)—N-(6-(3-(2-ethoxyphenoxy)piperidin-1-yl)pyrazin-2-yl)-4-nitrobenzamide] to `CCOc1ccccc1O[C@@H]1CCCN(c2cncc(NC(=O)c3ccc(CC(=O)O)cc3)n2)C1` [Example 12, (R)-2-(4-((6-(3-(2-ethoxyphenoxy)piperidin-1-yl)pyrazin-2-yl)carbamoyl)phenyl)acetic acid], the IC50 rises from 19 nM to 4000 nM (210-fold). The first is the more potent here.

First: CCOc1ccccc1O[C@@H]1CCCN(c2cncc(NC(=O)c3ccccc3C(=O)O)n2)C1 [Example 11, (R)-2-((6-(3-(2-ethoxyphenoxy)piperidin-1-yl)pyrazin-2-yl)carbamoyl)benzoic acid]
Second: CCOc1ccccc1O[C@@H]1CCCN(c2cncc(NC(=O)c3ccc(C(C)(C)C(=O)O)cc3)n2)C1 [Example 13, (R)-2-(4-((6-(3-(2-ethoxyphenoxy)piperidin-1-yl)pyrazin-2-yl)carbamoyl)phenyl)-2-methylpropanoic acid]
The IC50 of the first is 1.8-fold higher: 16000 nM for the first, 9100 nM for the second.

Going from `CCOc1ccccc1O[C@@H]1CCCN(c2cncc(NC(=O)c3ccc(OC(C)(C)C(=O)O)cc3)n2)C1` [Example 14, (R)-2-(4-((6-(3-(2-ethoxyphenoxy)piperidin-1-yl)pyrazin-2-yl)carbamoyl)phenoxy)-2-methylpropanoic acid] to `CCOc1ccccc1O[C@@H]1CCCN(c2cncc(NC(=O)CC(C)(C)C(=O)O)n2)C1` [Example 22, (R)-4-((6-(3-(2-ethoxyphenoxy)piperidin-1-yl)pyrazin-2-yl)amino)-2,2-dimethyl-4-oxobutanoic acid], the IC50 falls from 12000 nM to 1300 nM (9.2-fold).

Compared with `CCOc1ccccc1O[C@@H]1CCCN(c2cncc(NC(=O)C3CCN(S(C)(=O)=O)CC3)n2)C1` [Example 15], `CCOc1ccccc1O[C@@H]1CCCN(c2cncc(NC(=O)C3CCN(S(=O)(=O)C(C)C)CC3)n2)C1` [Example 17, (R)—N-(6-(3-(2-ethoxyphenoxy)piperidin-1-yl)pyrazin-2-yl)-1-(isopropylsulfonyl)piperidine-4-carboxamide] is 2.5-fold lower in IC50: 25 nM for the first, 10 nM for the second.

First: CCOc1ccccc1O[C@@H]1CCCN(c2cncc(NC(=O)C3CCN(c4ncc(CC)cn4)CC3)n2)C1 [Example 18, (R)—N-(6-(3-(2-ethoxyphenoxy)piperidin-1-yl)pyrazin-2-yl)-1-(5-ethylpyrimidin-2-yl)piperidine-4-carboxamide]
Second: CCOc1ccccc1O[C@@H]1CCCN(c2cncc(NC(=O)C3CCC[C@H]3C(=O)O)n2)C1 (stereo partly drawn) [Example 20, (1R)-2-((6-((R)-3-(2-ethoxyphenoxy)piperidin-1-yl)pyrazin-2-yl)carbamoyl)cyclopentane-1-carboxylic acid]
The IC50 of the first is 500-fold lower: 8 nM for the first, 4000 nM for the second.

Compared with `CCOc1ccccc1O[C@@H]1CCCN(c2cncc(NC(=O)CCC(=O)O)n2)C1` [Example 19, (R)-4-((6-(3-(2-ethoxyphenoxy)piperidin-1-yl)pyrazin-2-yl)amino)-4-oxobutanoic acid], `CCOc1ccccc1O[C@@H]1CCCN(c2cncc(NC(=O)CCC(C)(C)C(=O)O)n2)C1` [Example 24, (R)-5-((6-(3-(2-ethoxyphenoxy)piperidin-1-yl)pyrazin-2-yl)amino)-2,2-dimethyl-5-oxopentanoic acid] is 50-fold lower in IC50: about 15000 nM for the first, 300 nM for the second. The second is the more potent here.

Going from `CCOc1ccccc1O[C@@H]1CCCN(c2cncc(NC(=O)C34CCC(C(=O)O)(CC3)CC4)n2)C1` [Example 21, (R)-4-((6-(3-(2-ethoxyphenoxy)piperidin-1-yl)pyrazin-2-yl)carbamoyl)bicyclo[2.2.2]octane-1-carboxylic acid] to `CCOc1ccccc1O[C@@H]1CCCN(c2cncc(NC(=O)CC(C)(C)CC(=O)O)n2)C1` [Example 25, (R)-5-((6-(3-(2-ethoxyphenoxy)piperidin-1-yl)pyrazin-2-yl)amino)-3,3-dimethyl-5-oxopentanoic acid], the IC50 falls from 4800 nM to 1800 nM (2.7-fold).

First: CCOc1ccccc1O[C@@H]1CCCN(c2cncc(N3C(=O)CC(C)(C)C3=O)n2)C1 [Example 23, (R)-1-(6-(3-(2-ethoxyphenoxy)piperidin-1-yl)pyrazin-2-yl)-3,3-dimethylpyrrolidine-2,5-dione]
Second: CCOc1ccccc1O[C@@H]1CCCN(c2cncc(NC(=O)Cc3cccc(C(F)(F)F)c3)n2)C1 [Example 26]
The IC50 of the first is 140-fold higher: 7400 nM for the first, 54 nM for the second. The second is the more potent here.
